Six compounds from PubChem BioAssay AID1845219 (Molecular Pharmacology Branch, DTP, NCI, 2023) can be followed below.

Several values for one entry are separate records, joined by “and”; a condition that tells them apart may be missing. Equal entries are not always repeated.

For the experiment, the system named is SYO-1 tumor spheroids, viability % test/control. The experiment can be described thus: Anticancer human tumor SYO-1 cell line growth inhibition.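 As to all read-outs here: spheroids exposed to agents for 7 days before viability read.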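 As to viability, T/C: 100% = DMSO vehicle control.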 The note with it: spheroids with HUVEC and MSC; for viability, T/C: stronger effect = lower value. A digest of the protocol:
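Complex tumor spheroids combined malignant cells with endothelial cells and mesenchymal stem cells. DNA-damaging drugs and DNA repair inhibitors were tested alone and in combination, at half-log dilutions down from clinical Cmax (top 10 microM if Cmax unknown), 0.25% DMSO final.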

The mark [1] stands for this setting: curve of first compound, second compound 1 µM.
Setting [2] is: curve of first compound, second compound 3.16 µM.
Setting [3] is: curve of first compound, second compound 10 µM.
Setting [4] is: curve of first compound, second compound 31.6 µM.
[5] abbreviates: curve of first compound, second compound 100 µM.

A word on the IC50: it is the concentration that inhibits the measured activity by half. The term viability, T/C denotes the ratio of treated to control. With `[2H]c1nc(C)nc([2H])c1-c1cc(NC[C@@H](C)c2cccc3c(C(=O)NC)ccnc23)ncn1` + Cn1nnc2c(C(N)=O)ncn2c1=O, the IC50 reads like this: under setting [1], more than 10000 nM; under setting [2], more than 10000 nM; under setting [3], more than 10000 nM; under setting [4], more than 10000 nM; under setting [5], more than 10000 nM. Besides, the viability, T/C is 105% (second compound 1 µM, first compound 0.0316 µM); 105% (second compound 1 µM, first compound 0.1 µM); 102% (second compound 1 µM, first compound 0.316 µM); 98.9% (second compound 1 µM, first compound 1 µM); 93.3% (second compound 1 µM, first compound 3.16 µM); 83% (second compound 1 µM, first compound 10 µM). For the same compound, the viability, T/C is 110% (second compound 3.16 µM, first compound 0.0316 µM); 113% (second compound 3.16 µM, first compound 0.1 µM); 105% (second compound 3.16 µM, first compound 0.316 µM); 96.5% (second compound 3.16 µM, first compound 1 µM); 90% (second compound 3.16 µM, first compound 3.16 µM); 84.8% (second compound 3.16 µM, first compound 10 µM). The viability, T/C reads like this: (second compound 10 µM, first compound 0.0316 µM) 109%; (second compound 10 µM, first compound 0.1 µM) 106%; (second compound 10 µM, first compound 0.316 µM) 106%; (second compound 10 µM, first compound 1 µM) 96.1%; (second compound 10 µM, first compound 3.16 µM) 90.2%; (second compound 10 µM, first compound 10 µM) 88.4%. For the same compound, the viability, T/C runs as follows: (second compound 31.6 µM, first compound 0.0316 µM) 115%; (second compound 31.6 µM, first compound 0.1 µM) 109%; (second compound 31.6 µM, first compound 0.316 µM) 110%; (second compound 31.6 µM, first compound 1 µM) 102%; (second compound 31.6 µM, first compound 3.16 µM) 96.4%; (second compound 31.6 µM, first compound 10 µM) 94%. In addition, the viability, T/C is 113% (second compound 100 µM, first compound 0.0316 µM); 115% (second compound 100 µM, first compound 0.1 µM); 111% (second compound 100 µM, first compound 0.316 µM); 110% (second compound 100 µM, first compound 1 µM); 93.7% (second compound 100 µM, first compound 3.16 µM); 94.3% (second compound 100 µM, first compound 10 µM).
Take `COc1cc(C)[nH]c(=O)c1CN1CCc2c(Cl)cc(C(OC)C3COC3)c(Cl)c2C1=O` (configuration not stated): the viability, T/C was 114% and 106% (2×) (compound 0.0316 µM); 110% and 115% and 112% (compound 0.1 µM); 95.1% and 101% and 106% (compound 0.316 µM); 78.1% and 82.5% and 90.5% (compound 1 µM); 67.7% and 80% and 82.7% (compound 3.16 µM); 59.9% and 73.2% and 75.6% (compound 10 µM). The half-inhibitory concentration (IC50) (curve of compound) is more than 10000 nM.
As for `CC1COCCN1c1cc(-c2ccnn2C)c2ccnc(-c3ccn[nH]3)c2n1` (configuration not stated), the viability, T/C runs as follows: (compound 0.1 µM) 3.02% and 9.27% and 5.04%; (compound 0.316 µM) 1.96% and 2.61% and 2.62%; (compound 1 µM) 1.13% and 1.61% and 1.44%; (compound 3.16 µM) 0.59% and 0.92% and 0.71%; (compound 10 µM) 0.6% and 0.99% and 0.58%. In addition, under “curve of compound”, the IC50 was < 31.6 nM and 32.1 nM.
For the compound `COc1ccc([C@@H](O)c2cc(-c3ncnc4cc(N5CCOCC5)ccc34)c(F)cc2Cl)nn1`, the viability, T/C was 109% and 108% and 104% (compound 0.0316 µM); 108% and 107% and 101% (compound 0.1 µM); 104% and 106% and 103% (compound 0.316 µM); 105% and 101% and 102% (compound 1 µM); 66.1% (2×) and 84.2% (compound 3.16 µM); 7.28% and 14.2% and 20.4% (compound 10 µM). Further, the half-maximal inhibitory concentration (IC50) (curve of compound) was 4310 nM and 4520 nM and 5860 nM.
In the case of `Cc1cc(C)c(CNC(=O)c2cc(-c3ccc(CN4CCOCC4)cc3)cc3c2cnn3C2CCCC2)c(=O)[nH]1`, the viability, T/C is 106% and 109% and 103% (compound 0.0316 µM); 106% and 109% and 100% (compound 0.1 µM); 108% and 97.8% and 99.2% (compound 0.316 µM); 107% and 104% and 103% (compound 1 µM); 112% and 104% (2×) (compound 3.16 µM); 106% and 67% and 88.7% (compound 10 µM). For the same compound, the half-inhibitory concentration (IC50) (curve of compound) was more than 10000 nM.
As for `CNCc1ccc(-c2cc(-c3nc(-c4ccc(S(=O)(=O)C(C)C)cc4)cnc3N)on2)cc1` + Cn1nnc2c(C(N)=O)ncn2c1=O, the 50% inhibitory concentration (IC50) came out at 145 nM under setting [1]; 163 nM under setting [2]; 147 nM under setting [3]; 80.8 nM under setting [4]; 47.6 nM under setting [5]. The viability, T/C runs as follows: (second compound 1 µM, first compound 0.00949 µM) 105%; (second compound 1 µM, first compound 0.03 µM) 98.7%; (second compound 1 µM, first compound 0.0949 µM) 77.6%; (second compound 1 µM, first compound 0.3 µM) 2.58%; (second compound 1 µM, first compound 0.949 µM) 0.22%; (second compound 1 µM, first compound 3 µM) 0.09%. Besides, the viability, T/C (second compound 3.16 µM, first compound 0.00949 µM) is 105%; the viability, T/C (second compound 3.16 µM, first compound 0.03 µM) was 103%; the viability, T/C (second compound 3.16 µM, first compound 0.0949 µM) is 91.6%; the viability, T/C (second compound 3.16 µM, first compound 0.3 µM) was 2.75%; the viability, T/C (second compound 3.16 µM, first compound 0.949 µM) was 0.12%; the viability, T/C (second compound 3.16 µM, first compound 3 µM) is 0.09%. The viability, T/C (second compound 10 µM, first compound 0.00949 µM) is 107%; the viability, T/C (second compound 10 µM, first compound 0.03 µM) was 99%; the viability, T/C (second compound 10 µM, first compound 0.0949 µM) is 79.6%; the viability, T/C (second compound 10 µM, first compound 0.3 µM) is 1.77%; the viability, T/C (second compound 10 µM, first compound 0.949 µM) was 0.13%; the viability, T/C (second compound 10 µM, first compound 3 µM) is 0.1%. The viability, T/C reads like this: (second compound 31.6 µM, first compound 0.00949 µM) 111%; (second compound 31.6 µM, first compound 0.03 µM) 106%; (second compound 31.6 µM, first compound 0.0949 µM) 40.9%; (second compound 31.6 µM, first compound 0.3 µM) 1.76%; (second compound 31.6 µM, first compound 0.949 µM) 0.23%; (second compound 31.6 µM, first compound 3 µM) 0.11%. Also, the viability, T/C (second compound 100 µM, first compound 0.00949 µM) is 107%; the viability, T/C (second compound 100 µM, first compound 0.03 µM) is 77.2%; the viability, T/C (second compound 100 µM, first compound 0.0949 µM) was 9.17%; the viability, T/C (second compound 100 µM, first compound 0.3 µM) is 1.95%; the viability, T/C (second compound 100 µM, first compound 0.949 µM) was 0.23%; the viability, T/C (second compound 100 µM, first compound 3 µM) is 0.18%.
